Test systems include RPMI-8226 leukemia; SNB-19 CNS; HOP-92 NSCLC; SN12C renal; LOX IMVI melanoma; SW-620 colon; CCRF-CEM leukemia; NCI-H460 lung; K-562 leukemia; UACC-62 melanoma.
Test in all cases: NCI anticancer screen, dose series, 48 h

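Protocol summary: plate cells (96-well), add compound at 5 concentrations, incubate 48 h, interpolate endpoints linearly. GI50 is the concentration that inhibits growth by half. Definition used: TGI = concentration required for complete inhibition of growth.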

Drawing on PubChem BioAssay (NCI), this text covers TGI and GI50 for eight molecules.

With `O=C(CC(=O)c1ccccc1)C(=O)NC12CC3CC(CC(C3)C1)C2`, the TGI in the experiment with RPMI-8226 leukemia was over 66 µM; in the experiment with SNB-19 CNS, over 100 µM; in the experiment with HOP-92 NSCLC it was over 100 µM; in the experiment with SN12C renal, over 100 µM; in the experiment with LOX IMVI melanoma it was over 50 µM; in the experiment with SW-620 colon it was over 58.7 µM. In addition, the TGI was over 80.4 µM with CCRF-CEM leukemia, over 56.9 µM in the experiment with NCI-H460 lung, over 100 µM with K-562 leukemia and over 100 µM with UACC-62 melanoma.
`CCc1nc(N)nc(N)c1C#CC(C)c1cc(-c2ccnc(C)c2)c2oc(C)nc2c1` (stereo not given): the GI50 was 0.0771 µM in the experiment with RPMI-8226 leukemia; under 0.0114 µM in the experiment on SNB-19 CNS; 0.703 µM with HOP-92 NSCLC; under 0.0145 µM with SN12C renal; under 0.01 µM in the experiment on LOX IMVI melanoma; under 0.01 µM in the experiment on SW-620 colon. Further, the GI50 with CCRF-CEM leukemia, in the experiment on NCI-H460 lung, in the experiment with K-562 leukemia and in the experiment with UACC-62 melanoma was under 0.01 µM in each case. Besides, the TGI was found to be 3.31 µM in the experiment on RPMI-8226 leukemia; 12.1 µM in the experiment on SNB-19 CNS; 11.4 µM with HOP-92 NSCLC; 11.4 µM in the experiment on SN12C renal; 2.3 µM in the experiment with LOX IMVI melanoma; 13.2 µM with SW-620 colon. The TGI amounted to 29.9 µM in the experiment with CCRF-CEM leukemia, 4.26 µM in the experiment with NCI-H460 lung, 31.3 µM with K-562 leukemia and 3.23 µM in the experiment with UACC-62 melanoma.
For the molecule `CC(=O)n1c(-c2ccc(Cl)c(Cl)c2)cn(-c2ccc(Cl)cc2)c1=O`, the GI50 in the experiment with RPMI-8226 leukemia was 18.8 µM; with SNB-19 CNS it was 13.4 µM; in the experiment with HOP-92 NSCLC it was 13.9 µM; in the experiment on SN12C renal, 31.8 µM; with LOX IMVI melanoma it was 83.6 µM; with SW-620 colon, 30.9 µM. In addition, the GI50 in the experiment on CCRF-CEM leukemia is 16.8 µM; with NCI-H460 lung, 30.8 µM; with K-562 leukemia it was 24.1 µM; in the experiment on UACC-62 melanoma, 19.8 µM. Moreover, the TGI with RPMI-8226 leukemia is 67.7 µM; with SNB-19 CNS, 40.7 µM; with HOP-92 NSCLC, 30.2 µM; in the experiment on SN12C renal, over 100 µM; in the experiment on LOX IMVI melanoma it was over 100 µM; with SW-620 colon, over 100 µM. Besides, the TGI in the experiment on CCRF-CEM leukemia was 38 µM; with NCI-H460 lung it was over 100 µM; with K-562 leukemia, 80.5 µM; with UACC-62 melanoma it was 55.8 µM.
`Oc1ccc(Cn2c(-c3ccc(O)cc3)nc3ccccc32)cc1`: the TGI with RPMI-8226 leukemia, with SNB-19 CNS, with HOP-92 NSCLC, with SN12C renal, in the experiment on LOX IMVI melanoma and in the experiment on SW-620 colon was over 100 µM in each case. Moreover, the TGI in the experiment on CCRF-CEM leukemia, with NCI-H460 lung, in the experiment with K-562 leukemia and with UACC-62 melanoma was over 100 µM each time.
In the case of `CCOC(=O)c1cn(CC)c2cc3c(cc2c1=O)SCS3`, the TGI with RPMI-8226 leukemia, in the experiment with SNB-19 CNS, in the experiment on HOP-92 NSCLC, in the experiment with SN12C renal, with LOX IMVI melanoma and with SW-620 colon was over 100 µM throughout. For the same molecule, the TGI in the experiment with CCRF-CEM leukemia, in the experiment with NCI-H460 lung, in the experiment with K-562 leukemia and in the experiment with UACC-62 melanoma was over 100 µM in each case.
As for `O=C(NN1C(=O)CSC12CCC(c1ccccc1)CC2)c1[nH]c2ccc(F)cc2c1-c1ccccc1` (stereo not given), the GI50 with RPMI-8226 leukemia is 13.8 µM; with SNB-19 CNS, 29.8 µM; in the experiment on HOP-92 NSCLC, 17.2 µM; in the experiment on SN12C renal, 17.6 µM; in the experiment with LOX IMVI melanoma, 17.1 µM; in the experiment with SW-620 colon, 17.4 µM. Further, the GI50 in the experiment with CCRF-CEM leukemia was 19.4 µM; in the experiment with NCI-H460 lung, 19.6 µM; in the experiment with K-562 leukemia, 23.7 µM; in the experiment with UACC-62 melanoma, 10.8 µM. In addition, the TGI with RPMI-8226 leukemia is 31.8 µM; in the experiment on SNB-19 CNS it was over 100 µM; with HOP-92 NSCLC it was 34.5 µM; in the experiment on SN12C renal, 31.8 µM; in the experiment with LOX IMVI melanoma, 30.8 µM; with SW-620 colon it was 36.8 µM. The TGI with CCRF-CEM leukemia came to 41.1 µM; in the experiment on NCI-H460 lung, 47.7 µM; with K-562 leukemia, 62.9 µM; in the experiment on UACC-62 melanoma, 23.8 µM.
Turning to `CCOC(=O)/C=C1\Oc2ccccc2C1(C)O` (stereo not given), the TGI with RPMI-8226 leukemia, in the experiment with SNB-19 CNS, in the experiment with HOP-92 NSCLC, in the experiment with SN12C renal, in the experiment on LOX IMVI melanoma and with SW-620 colon was over 100 µM each time. The TGI with CCRF-CEM leukemia, in the experiment on NCI-H460 lung, in the experiment on K-562 leukemia and with UACC-62 melanoma was over 100 µM each time.
Consider `NCCSC(C[N+](=O)[O-])c1ccccc1Cl` (stereo not given), for which the GI50 in the experiment on RPMI-8226 leukemia is 0.727 µM; in the experiment with SNB-19 CNS, 3.38 µM; with HOP-92 NSCLC it was 12.5 µM; with SN12C renal it was 7.33 µM; in the experiment with LOX IMVI melanoma, 1.69 µM; with SW-620 colon, 1.82 µM. In addition, the GI50 in the experiment on CCRF-CEM leukemia was 3.8 µM; in the experiment with NCI-H460 lung it was 11.8 µM; in the experiment with K-562 leukemia it was 2.96 µM; in the experiment with UACC-62 melanoma, 13.2 µM. The TGI with RPMI-8226 leukemia was 5.3 µM; in the experiment on SNB-19 CNS it was 11.5 µM; in the experiment on HOP-92 NSCLC, 47.2 µM; in the experiment on SN12C renal, 21.9 µM; in the experiment with LOX IMVI melanoma it was 3.56 µM; in the experiment on SW-620 colon, 4.05 µM. Also, the TGI with CCRF-CEM leukemia was over 86.7 µM; in the experiment with NCI-H460 lung it was 32 µM; with K-562 leukemia it was over 23.7 µM; with UACC-62 melanoma, 26.3 µM.
